{"source": "paper PMC7017153", "about": "“Assembly of a G-Quadruplex Repair Complex by the FANCJ DNA Helicase and the REV1 Polymerase” (Genes, 2019)", "molecules": {"B1": {"name": "bioFANCJ PIP (peptide)", "peptide": "Biotin-SWSSFNSLGQYFTGKIP", "notes": "FANCJ helicase, human, PIP-like motif, amino acids 1001-1017; Held on streptavidin biosensors by the N-terminal biotin; also called biotinylated FANCJ PIP; wild-type PIP; source: synthetic peptide (Genscript)"}}, "key": {"[1]": {"test": "Circular dichroism (CD) of G4 DNA in KCl", "type": "physicochemical", "conditions": "20 mM boric acid pH 7.5, 150 mM KCl, 25 °C, 320-220 nm", "procedure": "(§1) CD measurements were collected on a JASCO J-810 spectropolarimeter (JASCO Inc., Easton, MD, USA) equipped with a PTC-423S peltier system. G4 DNA samples were dialyzed into 20 mM Boric Acid pH 7.5, 150 mM KCl (or NaCl). CD spectra were collected from 320 nm to 220 nm at 25 °C. Five traces were obtained for each DNA substrate, and a reference scan of the buffer alone was subtracted from the averaged CD signal."}, "[2]": {"test": "Circular dichroism (CD) of G4 DNA in NaCl", "type": "physicochemical", "conditions": "150 mM NaCl, 25 °C, 320-220 nm", "procedure": "as §1"}, "[3]": {"system": "human REV1 CTD (amino acid residues 1157 to 1251)", "test": "BLI, biotinylated FANCJ PIP peptides with REV1 CTD", "type": "binding", "conditions": "Buffer H, 25 °C; for BLI binding signal (Δλ), REV1 CTD versus PCNA: 1.3 µM PCNA trimer", "text": "(§2) The pEB022 plasmid used to produce full-length human PCNA protein was kindly provided by Dr. M. Todd Washington (University of Iowa). A codon-optimized construct (VB170525-1265 nra) used to express human REV1 CTD (amino acid residues 1157 to 1251) in E. coli was synthesized by VectorBuilder Inc. (Chicago, IL, USA). Plasmids were transformed into NiCo21(DE3) competent cells from New England Biolabs (Ipswich, MA, USA). Single bacteria colonies were selected on LB agar plates that were supplemented with 50 µg/mL of kanamycin (PCNA) or carbenicillin (REV1 CTD) to inoculate starter cultures in LB broth. Overnight growths were diluted 1:50 into 4 × 1L LB (37 °C, 250 rpm). Protein expression was induced by adding IPTG to 1 mM when the optical density at 600 nm reached 0.4 absorbance units. Cells were cultured overnight at 16 °C. They were harvested 16 h post induction by centrifugation (6000 × g at 4 °C) for 60 min, and the pellets were resuspended in 20 mM NaPi (pH 7.5), 300 mM NaCl, 30 mM imidazole, 1 mM DTT, 5% (v/v) glycerol, 1% NP-40, and 1 mM PMSF.\n(§3) BLI assays were performed on a BLItz instrument (Pall Fortébio, Fremont, CA, USA). Streptavidin-coated biosensors were purchased from Pall Fortébio (Lot 1906281). Biosensors were hydrated in Buffer H for 10 min, and the baseline optical interference was recorded. A total of 150 nM of biotinylated G4 DNA or FANCJ PIP peptide was loaded onto the sensors over 2 min, after which they were washed with Buffer H. Binding reactions were initiated by placing the biosensors in analyte solutions at the indicated concentrations. After their interactions had reached an equilibrium, the sensors were returned to buffer to monitor dissociation of the complexes. Experiments were repeated in triplicate. BLI binding isotherms were generated by plotting the plateau values of the association phase versus total analyte concentration. These curves were fit to a 1:1 interaction model, as described above. The parameters reported were obtained from the average and 95% confidence interval of the three data sets.\nPIP-containing proteins bind directly to PCNA to coordinate DNA replication and repair. However, it is now evident that noncanonical PIP-boxes can serve as hotspots to recruit other proteins, including the REV1 translesion synthesis polymerase and the MLH1 mismatch repair protein [54, 55, 56, 64]. To test if the PIP-like motif in FANCJ functions as a PIP or an REV1-interacting region (RIR), we compared how this peptide bound to PCNA versus REV1 by BLI. Recombinant human PCNA protein and the C-terminal domain (CTD) of human REV1 were purified from E. coli (Figure S3A). Biotinylated FANCJ PIP was immobilized on a streptavidin-coated biosensor and experiments were performed as described above. […] Because Δλ is related to the thickness of the biolayer, this value reports the accumulation of mass on the sensor tip. […] This difference is further magnified as REV1 CTD has a molecular mass of ~12 kDa, while a human PCNA trimer is about seven times its size, at ~86 kDa. Next, we tested the effects of a FANCJ PIP AA peptide on its interactions with REV1 CTD and PCNA. The consecutive consensus aromatic residues (YF) within the potential PIP-motif were replaced with alanine amino acids (AA). […] BLI experiments with PIP and PIP AA were repeated as a function of REV1 CTD and PCNA concentration to measure their corresponding equilibrium constant values."}, "full-length human PCNA": {"system": "full-length human PCNA", "test": "BLI, biotinylated FANCJ PIP peptides with PCNA", "type": "binding", "conditions": "Buffer H, 25 °C; for Binding to PCNA: BLI", "text": "as §2, §3\nPIP-containing proteins bind directly to PCNA to coordinate DNA replication and repair. However, it is now evident that noncanonical PIP-boxes can serve as hotspots to recruit other proteins, including the REV1 translesion synthesis polymerase and the MLH1 mismatch repair protein [54, 55, 56, 64]. To test if the PIP-like motif in FANCJ functions as a PIP or an REV1-interacting region (RIR), we compared how this peptide bound to PCNA versus REV1 by BLI. Recombinant human PCNA protein and the C-terminal domain (CTD) of human REV1 were purified from E. coli (Figure S3A). Biotinylated FANCJ PIP was immobilized on a streptavidin-coated biosensor and experiments were performed as described above. […]"}, "bioFANCJ PIP AA (human)": {"target": "bioFANCJ PIP AA (human)", "test": "BLI; 150 nM biotinylated FANCJ PIP or PIP AA peptide loaded on streptavidin biosensors (BLItz); REV1 CTD (1.8 uM) or PCNA trimer (1.3 uM) as analyte, also as a function of analyte concentration; Buffer H (20 mM HEPES pH 7.5, 150 mM KCl, 5 mM TCEP, 5% glycerol), 25 C; plateau values fit to a 1:1 model"}, "[4]": {"target": "T1, full-length human PCNA protein (human, UniProt P12004 1-261)", "T1 construct": "PCNA sliding clamp, human, full length; made from plasmid pEB022; also called PCNA trimer; source: E. coli NiCo21(DE3), purified (Ni2+ IMAC, heparin)", "T1 sequence (P12004 whole entry)": "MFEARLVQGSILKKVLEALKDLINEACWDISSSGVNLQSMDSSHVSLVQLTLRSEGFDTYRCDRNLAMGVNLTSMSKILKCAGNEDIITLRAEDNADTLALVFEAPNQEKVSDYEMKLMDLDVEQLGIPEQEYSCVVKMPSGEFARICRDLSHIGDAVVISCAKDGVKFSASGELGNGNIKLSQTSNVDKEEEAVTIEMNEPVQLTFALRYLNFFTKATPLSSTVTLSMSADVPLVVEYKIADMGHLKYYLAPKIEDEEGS", "test": "BLI; 150 nM biotinylated FANCJ PIP or PIP AA peptide loaded on streptavidin biosensors (BLItz); REV1 CTD (1.8 uM) or PCNA trimer (1.3 uM) as analyte, also as a function of analyte concentration; Buffer H (20 mM HEPES pH 7.5, 150 mM KCl, 5 mM TCEP, 5% glycerol), 25 C; plateau values fit to a 1:1 model", "conditions": "both partners purified"}, "[5]": {"target": "T2, human REV1 CTD (amino acid residues 1157 to 1251) (human, UniProt Q9UBZ9 1157-1251)", "T2 construct": "REV1 translesion DNA synthesis polymerase, human, C-terminal domain, residues 1157-1251; codon-optimized construct; also called C-terminal domain (CTD) of human REV1; source: E. coli NiCo21(DE3), purified (Ni2+ IMAC, heparin)", "T2 sequence (looked up)": "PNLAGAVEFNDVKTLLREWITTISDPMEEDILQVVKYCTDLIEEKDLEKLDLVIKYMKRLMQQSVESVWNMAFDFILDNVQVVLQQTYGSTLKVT", "test": "BLI; 150 nM biotinylated FANCJ PIP or PIP AA peptide loaded on streptavidin biosensors (BLItz); REV1 CTD (1.8 uM) or PCNA trimer (1.3 uM) as analyte, also as a function of analyte concentration; Buffer H (20 mM HEPES pH 7.5, 150 mM KCl, 5 mM TCEP, 5% glycerol), 25 C; plateau values fit to a 1:1 model", "conditions": "both partners purified"}, "[6]": {"conditions": "BLI isotherms, PIP AA versus wild-type PIP"}, "[7]": {"conditions": "biotinylated peptide 150 nM, 1.8 µM REV1 CTD"}}, "note": "“Also recorded” adds a separate entry of the source. Where no end group is shown, it is not given here. The star is where a group is joined. Biotin = O=C1N[C@H]2[C@H](CS[C@H]2CCCCC(=O)*)N1", "data": [{"molecule": "(TTAGGG)4: human telomeric G4 DNA, TTAGGGTTAGGGTTAGGGTTAGGG", "values": [{"measurement": "G4 conformation by CD (KCl)", "setting": "[1]", "result": "folded into a hybrid conformation"}, {"measurement": "G4 conformation by CD (NaCl)", "setting": "[2]", "result": "adopted an anti-parallel configuration in NaCl buffer"}]}, {"molecule": "Biotin-SWSSFNSLGQAATGKIP [FANCJ PIP AA, Biotin-…, YF replaced with AA]", "values": [{"measurement": "Change in affinity for REV1 CTD by PIP AA mutation", "setting": "[3]; [6]", "result": "small increase in affinity for REV1 CTD"}, {"measurement": "BLI binding signal (Δλ), REV1 CTD versus PCNA", "setting": "[3]; [7]", "result": "more REV1 CTD bound to the mutant peptide versus PCNA"}, {"measurement": "BLI binding signal, PIP AA versus wild-type PIP, REV1 CTD", "setting": "[3]; [7]", "result": "larger binding signals compared to the wild-type PIP sequence for REV1 CTD"}, {"measurement": "Change in affinity (binding constant) for PCNA by PIP AA mutation", "setting": "full-length human PCNA; [6]", "result": "binding of PCNA was weakened twofold; also recorded: reduced the binding constant for PCNA by half"}, {"measurement": "Binding to PCNA", "setting": "full-length human PCNA", "result": "still retained residual interactions with PCNA"}, {"measurement": "BLI binding signal, PIP AA versus wild-type PIP, PCNA", "setting": "full-length human PCNA; biotinylated peptide 150 nM, 1.3 µM PCNA trimer", "result": "larger binding signals compared to the wild-type PIP sequence"}]}, {"molecule": "Biotin-SWSSFNSLGQYFTGKIP [FANCJ PIP, Biotin-…, FANCJ amino acids 1001–1017]", "values": [{"measurement": "Binding to REV1 CTD", "setting": "[3]; BLI", "result": "bound to REV1 CTD"}, {"measurement": "BLI binding signal (Δλ), REV1 CTD versus PCNA", "setting": "[3]; [7]", "result": "REV1 CTD produced a larger binding signal than PCNA at similar molar concentrations of protein; also recorded: Interactions with REV1 CTD, however, produced a stronger binding signal than PCNA"}, {"measurement": "Binding to PCNA", "setting": "full-length human PCNA", "result": "bound to REV1 CTD and to PCNA"}]}, {"molecule": "full-length human PCNA protein (from UniProt P12004 1-261)", "values": [{"measurement": "fold weakening of the equilibrium constant against wild-type FANCJ PIP", "setting": "bioFANCJ PIP AA (human)", "result": 2, "unit": "fold"}]}, {"molecule": "B1", "values": [{"measurement": "binding result", "setting": "[4]", "result": "binds"}, {"measurement": "binding result", "setting": "[5]", "result": "binds"}]}]}
